Common to all, as to type: in vivo
Experiment [1] deals with Erysiphe graminis tritici (powdery mildew). In words: Test 1 greenhouse foliar spray screen, powdery mildew on wheat. The note with it: Blumeria graminis, foliar, Test 1, foliar spray on wheat; disease control rating at 400 ppm / 100 ppm; read-out: POWD MDEW.
Experiment [2] has as its system Botrytis cinerea (gray mold). The experiment can be described thus: Test 1 greenhouse foliar spray screen, gray mold on grape berries. The note with it: Botrytis cinerea, foliar; Test 1, spray on grape berries; disease control rating at 400 ppm / 100 ppm.
Experiment [3] relates to Puccinia recondita tritici (leaf rust). In words: Test 1 greenhouse foliar spray screen, leaf rust on wheat. To be noted: Puccinia recondita, foliar, Test 1, foliar spray on wheat; disease control rating at 400 ppm / 100 ppm.
Experiment [4] deals with Pyricularia oryzae (rice blast). In words: whole plant or invertebrate. The note with it: Pyricularia oryzae, foliar, read-out: RICE BLAST, Test 1, foliar spray on rice; disease control rating at 400 ppm / 100 ppm.
The subject of experiment [5] is Pseudoperonospora cubensis (downy mildew). The experiment can be described thus: Test 1 greenhouse foliar spray screen, downy mildew on squash. To be noted: Pseudoperonospora cubensis, foliar, Test 1, foliar spray on squash; disease control rating at 400 ppm / 100 ppm; read-out: DOWN MDEW.
The next experiment relates to corn rootworm. The experiment can be described thus: Mite/insect screen, CRW. The note with it: percent mortality, read-out: CRW RESULTS %; for mortality at 24 ppm: CRW rate 24.00 ppm. Put shortly:
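Stock in acetone:alcohol 1:1 + TOXIMUL R 23 g/L + TOXIMUL S 13 g/L; diluted with water to indicated concentrations; mortality (%) after standard exposure.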

Experiment [6] has as its system melon aphids (Aphis gossypii Glover). The experiment can be described thus: Mite/insect screen, MA. To be noted: Aphis gossypii, foliar, percent mortality, foliar spray on squash, read-out: MA RESULTS %; for mortality at 400 ppm: rate 400 ppm. An outline of the steps: (§1)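 First, each compound was dissolved in an emulsifier-containing acetone/alcohol mixture and diluted with water. Next, leaves were sprayed until runoff and left to dry for an hour. For southern armyworm, two excised uninfested leaves went into a Petri dish with larvae; percent mortality followed standard exposure periods.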

In experiment [7] the test system is Twospotted spider mites (Tetranychus urticae Koch). In words: Mite/insect screen, SM. To be noted: Tetranychus urticae, foliar, percent mortality, foliar spray on squash, read-out: SM RESULTS %; for mortality at 400 ppm: rate 400 ppm. Put shortly:
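Read-out: percent mortality after standard exposure periods. Test solutions were water dilutions of compound dissolved in acetone/alcohol (50:50) with emulsifier blends; leaves were sprayed to runoff on both surfaces and air-dried for one hour before exposure.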

In experiment [8] the test system is southern armyworm (Spodopetra eridania Cramer). In words: Mite/insect screen, SAW. To be noted: Spodoptera eridania, foliar, percent mortality, foliar spray on squash, read-out: SAW RESULTS %; for mortality at 400 ppm: rate 400 ppm. Put shortly: as §1

As for `CC(Cc1ccccc1)Oc1ccnc2c(F)cccc12` (stereo not shown) [Example 214, 8-fluoro-4-[1-(phenylmethyl)ethoxy]quinoline], the pest or weed control at 400 ppm in experiment [1] lay within 20 to 89%; in [2] it was 0 to 19%; in experiment [3], 20 to 89%; in experiment [4], 90 to 100%; in experiment [5], 90 to 100%. Moreover, the mortality at 24 ppm in the experiment on corn rootworm came out at 0%. Further, the mortality at 400 ppm in experiment [6], in [7] and in experiment [8] was 0% in each case.
In the case of `Clc1ccc(CCOc2ccnc3c(Br)cccc23)cc1` [Example 215, 8-bromo-4-[2-(4-chlorophenyl)ethoxy]quinoline], the pest or weed control at 400 ppm was 0 to 19% in [1]; 0 to 19% in [2]; 20 to 89% in experiment [3]; 20 to 89% in [4]; 90 to 100% in experiment [5]. Besides, the mortality at 24 ppm in the experiment with corn rootworm was determined as 0%. The mortality at 400 ppm came to 100% in experiment [6], 100% in experiment [7] and 0% in experiment [8].
On to `Clc1ccccc1CCOc1ccnc2c(Cl)cccc12` [Example 216, 8-chloro-4-[2-(2-chlorophenyl)ethoxy]quinoline], for which the pest or weed control at 400 ppm in experiment [1] is 90 to 100%; in [2] it was 0 to 19%; in experiment [3], 90 to 100%; in experiment [4] it was 90 to 100%; in experiment [5], 90 to 100%. In the experiment with corn rootworm, the mortality at 24 ppm turned out to be 100%. Also, the mortality at 400 ppm in experiment [6], in experiment [7] and in [8] was 0% in each case.
`CC(C)c1ccccc1CCOc1ccnc2c(F)cccc12` [Example 217, 8-fluoro-4-[2-(2-(1-methylethyl)phenyl)ethoxy]quinoline]: the pest or weed control at 400 ppm lay in the range of 90 to 100% in experiment [1]; 0 to 19% in experiment [2]; 90 to 100% in [3]; 90 to 100% in experiment [4]; 90 to 100% in [5]. For the same compound, in the experiment with corn rootworm, the mortality at 24 ppm is 0%. Also, the mortality at 400 ppm in experiment [6], in [7] and in experiment [8] was 0% each time.
`Fc1cccc2c(OCCc3cccc(Sc4ccccc4)c3)ccnc12` [Example 218, 8-fluoro-4-[2-(3-(phenylthio)phenyl)ethoxy]quinoline]: the pest or weed control at 400 ppm is 90 to 100% in experiment [1]; 0 to 19% in experiment [2]; 90 to 100% in [3]; 90 to 100% in experiment [4]; 90 to 100% in experiment [5]. In the experiment with corn rootworm, the mortality at 24 ppm amounted to 0%. Moreover, the mortality at 400 ppm in [6] was 0%; in experiment [7], 0%; in experiment [8] it was 100%.
With `Fc1cccc2c(OCCc3ccc(Br)cc3)ccnc12` [Example 223, 4-[2-(4-bromophenyl)ethoxy]-8-fluoroquinoline], the pest or weed control at 400 ppm lay in the range of 90 to 100% in [1]; 0 to 19% in experiment [2]; 90 to 100% in [3]; 90 to 100% in [4]; 0 to 19% in experiment [5]. For the same compound, in the experiment with corn rootworm (CRW rate 12.00 ppm), the mortality at 12 ppm is 80%. The mortality at 24 ppm in the experiment with corn rootworm was 0%. Also, the mortality at 200 ppm was found to be 80% in experiment [6] (rate 200 ppm), 0% in experiment [7] (rate 200 ppm) and 0% in [8] (rate 200 ppm). Besides, the mortality at 400 ppm in experiment [6] is 100%; in experiment [7], 0%; in experiment [8], 0%.

(Values after EP0326331B1, “Substituted quinolines and cinnolines” (Dow AgroSciences LLC, priority 1988, dated 1989).)
